Data taken from patent US9321764B2, “Dihydro-pyrrolopyridinone inhibitors” (AbbVie Inc., priority 2013, dated 2016).

How the values were obtained:
BRD4 (BDI_K57-E168) = biological target: T1, BRD4 (BDI_K57-E168) (Homo sapiens, UniProt O60885); experiment: TR-FRET bromodomain binding assay, first bromodomain of BRD4; details: His-tagged BD1, 100 nM Alexa647 probe; TR-FRET protocol A-E given per row
T1 construct: BD1: amino acids K57-E168; made in house
Summary of the method: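 His-tagged BRD4 BD1 (K57-E168), 8 nM, with 1 nM Eu-anti-His antibody and 100 nM Alexa647-labelled BET-inhibitor probe in pH 6.0 phosphate buffer, 2% DMSO. TR-FRET read after 1 h at room temperature. IC50 from 4-parameter fit, converted to Ki using probe Kd and concentration.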

[1] = test system: breast cancer cell line MX-1; experiment: MX-1 cell line proliferation assay; type: cell-based; details: Homo sapiens, MX1, 72 h, MX-1 cells, 3-day proliferation assay, Cell Titer Glo; read-out: Cellular proliferation EC50
Summary of the method: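 Cells seeded at 5000/well in RPMI 1640 with 10% FBS, allowed to adhere overnight at 37 °C, then exposed to compound at final 0.0001–3 μM for 3 days. Viability read by Cell Titer Glo luminescence, normalized to DMSO controls; EC50 from sigmoidal curve fit.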

BRD4 (BDII_E352-M457) = biological target: T2, BRD4 (BDII_E352-M457) (Homo sapiens, UniProt O60885); experiment: TR-FRET bromodomain binding assay, second bromodomain of BRD4; details: His-tagged BD2, 30 nM Alexa647 probe; TR-FRET protocol A-E given per row
T2 construct: proliferation; Protocol; made in house
Summary of the method: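 His-tagged BRD4 BD2 ([…]) competed against an Alexa647-labelled BET-inhibitor probe in TR-FRET. Buffer was 20 mM sodium phosphate pH 6.0, 50 mM NaCl, 1 mM EDTA, 0.01% Triton X-100, 1 mM DTT, with method D DMSO series of 2.5 mM–800 nM (stock range). IC50 from 4-parameter fit, Ki from probe Kd and concentration.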

Ki (BRD4 (BDI_K57-E168)) [nM] | EC50 [1] [nM] | Ki (BRD4 (BDII_E352-M457)) [nM] | Structure (SMILES)
5.31 | 309 | 4.72 | CCS(=O)(=O)Nc1cnc(Oc2ccc(F)cc2F)c(-c2cn(C)c3c(=O)[nH]ccc23)c1 [Example 184, N-[6-(2,4-difluorophenoxy)-5-(1-methyl-7-oxo-6,7-dihydro-1H-pyrrolo[2,3-c]pyridin-3-yl)pyridin-3-yl]ethanesulfonamide]
4.29 | 61.4 | 7.94 | CCS(=O)(=O)Nc1ccc(Oc2ccc(F)cc2F)c(-c2cn(C)c3c(=O)[nH]c(C4CCN(C(=O)C5CC5)CC4)cc23)c1 [Example 185, N-[3-{5-[1-(cyclopropylcarbonyl)piperidin-4-yl]-1-methyl-7-oxo-6,7-dihydro-1H-pyrrolo[2,3-c]pyridin-3-yl}-4-(2,4-difluorophenoxy)phenyl]ethanesulfonamide]
0.38 | 13.4 | 0.82 | CCS(=O)(=O)Nc1ccc(Oc2ccc(F)cc2F)c(-c2cn(C)c3c(=O)[nH]c(C4CCN(S(=O)(=O)CC)CC4)cc23)c1 [Example 186, N-[4-(2,4-difluorophenoxy)-3-{5-[1-(ethylsulfonyl)piperidin-4-yl]-1-methyl-7-oxo-6,7-dihydro-1H-pyrrolo[2,3-c]pyridin-3-yl}phenyl]ethanesulfonamide]
1.21 | 64.7 | 2.02 | CCS(=O)(=O)Nc1ccc(Oc2ccc(F)cc2F)c(-c2cn(C)c3c(=O)[nH]c(C(=O)NCCCn4ccnc4)cc23)c1 [Example 187, 3-{2-(2,4-difluorophenoxy)-5-[(ethylsulfonyl)amino]phenyl}-N-[3-(1H-imidazol-1-yl)propyl]-1-methyl-7-oxo-6,7-dihydro-1H-pyrrolo[2,3-c]pyridine-5-carboxamide]
1.42 | 29.9 | 13.5 | CCS(=O)(=O)Nc1ccc(Oc2ccc(F)cc2F)c(-c2cn(C)c3c(=O)[nH]c(C(=O)NCCN(C)C)cc23)c1 [Example 188, 3-{2-(2,4-difluorophenoxy)-5-[(ethylsulfonyl)amino]phenyl}-N-[2-(dimethylamino)ethyl]-1-methyl-7-oxo-6,7-dihydro-1H-pyrrolo[2,3-c]pyridine-5-carboxamide]
1.95 | 77.9 | 8.82 | CCS(=O)(=O)Nc1ccc(Oc2ccc(F)cc2F)c(-c2cn(C)c3c(=O)[nH]c(C(=O)NCC#N)cc23)c1 [Example 189, N-(cyanomethyl)-3-{2-(2,4-difluorophenoxy)-5-[(ethylsulfonyl)amino]phenyl}-1-methyl-7-oxo-6,7-dihydro-1H-pyrrolo[2,3-c]pyridine-5-carboxamide]
2.01 | 82 | 3.85 | CCS(=O)(=O)Nc1ccc(Oc2ccc(F)cc2F)c(-c2cn(C)c3c(=O)[nH]c(C(=O)NCCCO)cc23)c1 [Example 190, 3-{2-(2,4-difluorophenoxy)-5-[(ethylsulfonyl)amino]phenyl}-N-(3-hydroxypropyl)-1-methyl-7-oxo-6,7-dihydro-1H-pyrrolo[2,3-c]pyridine-5-carboxamide]
0.9 | 10.7 | 1.3 | CCS(=O)(=O)Nc1ccc(Oc2ccc(F)cc2F)c(-c2cn(C)c3c(=O)[nH]c(C(=O)NCc4cccnc4)cc23)c1 [Example 192, 3-{2-(2,4-difluorophenoxy)-5-[(ethylsulfonyl)amino]phenyl}-1-methyl-7-oxo-N-(pyridin-3-ylmethyl)-6,7-dihydro-1H-pyrrolo[2,3-c]pyridine-5-carboxamide]
4.3 | 111 | 41.3 | CCS(=O)(=O)Nc1ccc(Oc2ccc(F)cc2F)c(-c2cn(C)c3c(=O)[nH]c(C(=O)N4CCCC4)cc23)c1 [Example 193, N-{4-(2,4-difluorophenoxy)-3-[1-methyl-7-oxo-5-(pyrrolidin-1-ylcarbonyl)-6,7-dihydro-1H-pyrrolo[2,3-c]pyridin-3-yl]phenyl}ethanesulfonamide]
10.4 | 162 | 12.7 | CCS(=O)(=O)Nc1ccc(Oc2ccc(F)cc2F)c(-c2cn(C)c3c(=O)[nH]c(C(=O)NCC4CCCC4)cc23)c1 [Example 195, N-(cyclopentylmethyl)-3-{2-(2,4-difluorophenoxy)-5-[(ethylsulfonyl)amino]phenyl}-1-methyl-7-oxo-6,7-dihydro-1H-pyrrolo[2,3-c]pyridine-5-c arboxamide]
1.66 | 30.9 | 9.64 | CCS(=O)(=O)Nc1ccc(Oc2ccc(F)cc2F)c(-c2cn(C)c3c(=O)[nH]c(C(=O)NCCN4CCOCC4)cc23)c1 [Example 196, 3-{2-(2,4-difluorophenoxy)-5-[(ethylsulfonyl)amino]phenyl}-1-methyl-N-[2-(morpholin-4-yl)ethyl]-7-oxo-6,7-dihydro-1H-pyrrolo[2,3-c]pyridine-5-carboxamide]
2.05 | 67.6 | 4.23 | CCS(=O)(=O)Nc1ccc(Oc2ccc(F)cc2F)c(-c2cn(C)c3c(=O)[nH]c(C(=O)NCCN4CCN(C)CC4)cc23)c1 [Example 197, 3-{2-(2,4-difluorophenoxy)-5-[(ethylsulfonyl)amino]phenyl}-1-methyl-N-[2-(4-methylpiperazin-1-yl)ethyl]-7-oxo-6,7-dihydro-1H-pyrrolo[2,3-c]pyridine-5-carboxamide]
3.63 | 36.8 | 6.5 | CCS(=O)(=O)Nc1ccc(Oc2ccc(F)cc2F)c(-c2cn(C)c3c(=O)[nH]c(C(=O)NCC4CCOC4)cc23)c1 (stereo not drawn) [Example 199, 3-{2-(2,4-difluorophenoxy)-5-[(ethylsulfonyl)amino]phenyl}-1-methyl-7-oxo-N-(tetrahydrofuran-3-ylmethyl)-6,7-dihydro-1H-pyrrolo[2,3-c]pyridine-5-carboxamide]
3.24 | 43.6 | 4.56 | CCS(=O)(=O)Nc1ccc(Oc2ccc(F)cc2F)c(-c2cn(C)c3c(=O)[nH]c(C(=O)NC)cc23)c1 [Example 200, 3-{2-(2,4-difluorophenoxy)-5-[(ethylsulfonyl)amino]phenyl}-N,1-dimethyl-7-oxo-6,7-dihydro-1H-pyrrolo[2,3-c]pyridine-5-carboxamide]
5.82 | 98.3 | 16.3 | Cn1cc(-c2cc(CS(C)(=O)=O)cc(C3CC3)c2Nc2ccc(F)cc2F)c2cc[nH]c(=O)c21 [Example 202, 3-{3-cyclopropyl-2-[(2,4-difluorophenyl)amino]-5-[(methylsulfonyl)methyl]phenyl}-1-methyl-1,6-dihydro-7H-pyrrolo[2,3-c]pyridin-7-one]
13.8 | 118 | 43.9 | Cn1cc(-c2cc(CS(C)(=O)=O)ccc2Nc2ccccn2)c2cc[nH]c(=O)c21 [Example 203, 1-methyl-3-{5-[(methylsulfonyl)methyl]-2-(pyridin-2-ylamino)phenyl}-1,6-dihydro-7H-pyrrolo[2,3-c]pyridin-7-one]
